Measurements taken from patent US10081632B2, “Substituted tetrahydropyrido[3′,2′:4,5]pyrrolo[1,2-α]pyrazine-2-carboxamides as RSK inhibitors” (Phoenix Molecular Designs, priority 2016, dated 2018).
“Also recorded” adds a separate entry of the source.

Legend:
[1] = Solubility assessment, 20 mg/ml solution; type: physicochemical; details: for Solubility, 20 mg/ml Solution: 100 mM in DMSO diluted in DMEM growth media to 20 mg/ml
Description: Solubility is an important property for therapeutic drug candidates. Poor solubility can lead to low bioavailability resulting in suboptimal drug delivery. It can also prevent the evaluation of test agents in animals because the concentration(s) needed to achieve the desired effect cannot be achieved to poor solubility. For solubility assessments, small molecules targeting RSK were compared. For these assessments, 100 mM solutions of the compounds dissolved in DMSO were diluted in DMEM growth media (Life Technologies) supplemented with fetal bovine serum (FBS, Life Technologies) and 100 units/ml penicillin and 100 units/ml streptomycin (Life Technologies) to make 20 mg/ml solutions. Once diluted, the solutions were vortexed and examined for the formation of precipitates. […] For Compound 26, a 100 mM solution of the compound dissolved in DMSO was diluted in phosphate buffered saline (Life Technologies) to make a 20 mg/ml solution. The stock of […] was chosen because this is the upper end of what would be required to dose mice for a range of studies including MTD, PK, PD and efficacy. The pH of this solution was determined to be 2, as previously described. […] At high concentrations some RSK inhibitors were highly soluble while others were not. Compound 0 is (R)—N-(1-benzyl-1H-pyrazol-4-yl)-9-methyl-6-oxo-6,7,8,9-tetrahydropyrido[3′,2′:4,5]pyrrolo[1,2-a]pyrazine-2-carboxamide. Compound 0 was not soluble, whereas Compounds 18, 20, 21, 25 and 26 were soluble under the same conditions (Table 5).

MDA-MB-231 cells [2] = experiment: Soft agar growth inhibition assay; type: cell-based; details: Homo sapiens, MDA-MB-231; growth in soft agar (SA); read-out: MDA-MB-231 IC50 (SA)
CD34+ cells = experiment: Colony forming unit hematopoietic stem cell assay; type: cell-based, human
Description: The hematopoietic colony forming cell assay was conducted based on a protocol outlined by StemCell Technologies. […] Following the addition of CD34^+ cells isolated from human cord blood or peripheral blood (StemCell Technologies) at a final concentration of 5×10^2 cells per dish, the tubes were vortexed and allowed to stand for 5 minutes at room temperature. Next, the MethoCult mixtures were dispensed into 35 mm dishes (Corning Incorporated) through blunt end needles (StemCell Technologies) and 5 ml syringes (BD Biosciences) at a volume of 1.1 ml per dish. The medium was evenly distributed across the surface of each dish by gentle tilting and rotation. The dishes were then placed in a 100 mm culture dish (Grenier Bio-One) containing additional 35 mm dishes with sterile water to maintain humidity. […] The number of myeloid and erythroid derived colonies in both the treated and control dishes were counted and compared.

RSK2 = RSK2 (Homo sapiens (Human), UniProt P51812); experiment: Radioisotope kinase assay (SignalChem), RSK2; type: biochemical; details: 33P-ATP, 30° C., 15 minutes
Description: The assay conditions for the RSK2 kinase target were optimized to yield acceptable enzymatic activity. In addition, the assays were optimized to give high signal-to-noise ratio.
Radioisotope assays (SignalChem) were performed for the evaluation of the kinase target profiling and all assays were performed in a designated radioactive working area. The kinase targets were RSK1, RSK2, RSK3, RSK4 and MK2.
The assay was initiated by the addition of ^33P-ATP and the reaction mixture incubated at 30° C. for 15 minutes. After the incubation period, the assay was terminated by spotting 10 μL of the reaction mixture onto Multiscreen phosphocellulose P81 plate. The Multiscreen phosphocellulose P81 plate was washed 3 times for approximately 15 minutes each in a 1% phosphoric acid solution. The radioactivity on the P81 plate was counted in the presence of scintillation fluid in a Trilux scintillation counter.
Blank controls were set up for each target kinase which included all the assay components except the addition of the appropriate substrate (which was replaced with equal volume of assay dilution buffer). The corrected activity for each target kinase was determined by removing the blank control value.

SUM149-PTXR cells [3] = experiment: Monolayer growth inhibition, Alamar blue assay; type: cell-based, Human; details: Homo sapiens; SUM149-PTXR (TNBC, BRCA Mutant), 5 days, single dose on day 1
From the text: (§1) In all instances a single dose was given on day 1 of the experiment.

T47D cells [4] = experiment: Monolayer growth inhibition, Alamar blue assay; type: cell-based, Human; details: Homo sapiens; T47D (ER/PR), 5 days, single dose on day 1
From the text: as §1

PC3 cells [5] = experiment: Monolayer growth inhibition, Alamar blue assay; type: cell-based; details: Homo sapiens, PC-3; PC3 (Prostate), 5 days, single dose on day 1
From the text: as §1

4T1 cells [6] = experiment: Monolayer growth inhibition, Alamar blue assay; type: cell-based; details: Mus musculus; 4T1 (TNBC), 5 days, single dose on day 1
From the text: as §1

MDA-MB-468 cells [7] = experiment: Monolayer growth inhibition, Alamar blue assay; type: cell-based; details: Homo sapiens; MDA-MB-468 (TNBC), 5 days, single dose on day 1
From the text: as §1

SUM149 cells [8] = experiment: Monolayer growth inhibition, Alamar blue assay; type: cell-based; details: Homo sapiens; SUM149 (TNBC, BRCA Mutant), 5 days, single dose on day 1
From the text: as §1

HCC1937 cells [9] = experiment: Monolayer growth inhibition, Alamar blue assay; type: cell-based; details: Homo sapiens; HCC1937 (TNBC, BRCA Mutant), 5 days, single dose on day 1
From the text: as §1

JIMT-1 cells [10] = experiment: Monolayer growth inhibition, Alamar blue assay; type: cell-based; details: Homo sapiens; JIMT-1 (HER2), 5 days, single dose on day 1
From the text: as §1

MDA-MB-435 cells [11] = experiment: Monolayer growth inhibition, Alamar blue assay; type: cell-based; details: Homo sapiens; MDA-MB-435 (Melanoma), 5 days, single dose on day 1
From the text: as §1

MDA-MB-231 cells [12] = experiment: Monolayer growth inhibition, Alamar blue assay; type: cell-based; details: Homo sapiens; MDA-MB-231 (TNBC), 5 days, single dose on day 1
From the text: as §1

HCC1143 cells [13] = experiment: Monolayer growth inhibition, Alamar blue assay; type: cell-based; details: Homo sapiens; HCC1143 (TNBC), 5 days, single dose on day 1
From the text: as §1

PC3 cells [14] = experiment: Monolayer growth inhibition, crystal violet assay; type: cell-based; details: Homo sapiens, PC-3; PC3 (Prostate), 5 days, single dose on day 1
From the text: as §1

4T1 cells [15] = experiment: Monolayer growth inhibition, crystal violet assay; type: cell-based; details: Mus musculus; 4T1 (TNBC), 5 days, single dose on day 1
From the text: as §1

SUM149 cells [16] = experiment: Monolayer growth inhibition, crystal violet assay; type: cell-based; details: Homo sapiens; SUM149 (TNBC, BRCA Mutant), 5 days, single dose on day 1
From the text: as §1

MDA-MB-435 cells [17] = experiment: Monolayer growth inhibition, crystal violet assay; type: cell-based; details: Homo sapiens; MDA-MB-435 (Melanoma), 5 days, single dose on day 1
From the text: as §1

MDA-MB-231 cells [18] = experiment: Monolayer growth inhibition, crystal violet assay; type: cell-based; details: Homo sapiens; MDA-MB-231 (TNBC), 5 days, single dose on day 1
From the text: as §1

SUM149-PTXR cells [19] = experiment: Monolayer growth inhibition, crystal violet assay; type: cell-based; details: Homo sapiens; SUM149-PTXR (TNBC, BRCA Mutant), 5 days, single dose on day 1
From the text: as §1

HCC1143 cells [20] = experiment: Monolayer growth inhibition, crystal violet assay; type: cell-based; details: Homo sapiens; HCC1143 (TNBC), 5 days, single dose on day 1
From the text: as §1

MDA-MB-468 cells [21] = experiment: Monolayer growth inhibition, crystal violet assay; type: cell-based; details: Homo sapiens; MDA-MB-468 (TNBC), 5 days, single dose on day 1
From the text: (§2) In all instances a single dose was given on day 1 of the experiment. […] Complete (100%) growth suppression was achievable with several of the compounds in multiple different cell lines.

HCC1937 cells [22] = experiment: Monolayer growth inhibition, crystal violet assay; type: cell-based; details: Homo sapiens; HCC1937 (TNBC, BRCA Mutant), 5 days, single dose on day 1
From the text: as §2

JIMT-1 cells [23] = experiment: Monolayer growth inhibition, crystal violet assay; type: cell-based; details: Homo sapiens; JIMT-1 (HER2), 5 days, single dose on day 1
From the text: as §2

T47D cells [24] = experiment: Monolayer growth inhibition, crystal violet assay; type: cell-based; details: Homo sapiens; T47D (ER/PR), 5 days, single dose on day 1
From the text: as §2

Sequence of RSK2 (P51812 whole entry): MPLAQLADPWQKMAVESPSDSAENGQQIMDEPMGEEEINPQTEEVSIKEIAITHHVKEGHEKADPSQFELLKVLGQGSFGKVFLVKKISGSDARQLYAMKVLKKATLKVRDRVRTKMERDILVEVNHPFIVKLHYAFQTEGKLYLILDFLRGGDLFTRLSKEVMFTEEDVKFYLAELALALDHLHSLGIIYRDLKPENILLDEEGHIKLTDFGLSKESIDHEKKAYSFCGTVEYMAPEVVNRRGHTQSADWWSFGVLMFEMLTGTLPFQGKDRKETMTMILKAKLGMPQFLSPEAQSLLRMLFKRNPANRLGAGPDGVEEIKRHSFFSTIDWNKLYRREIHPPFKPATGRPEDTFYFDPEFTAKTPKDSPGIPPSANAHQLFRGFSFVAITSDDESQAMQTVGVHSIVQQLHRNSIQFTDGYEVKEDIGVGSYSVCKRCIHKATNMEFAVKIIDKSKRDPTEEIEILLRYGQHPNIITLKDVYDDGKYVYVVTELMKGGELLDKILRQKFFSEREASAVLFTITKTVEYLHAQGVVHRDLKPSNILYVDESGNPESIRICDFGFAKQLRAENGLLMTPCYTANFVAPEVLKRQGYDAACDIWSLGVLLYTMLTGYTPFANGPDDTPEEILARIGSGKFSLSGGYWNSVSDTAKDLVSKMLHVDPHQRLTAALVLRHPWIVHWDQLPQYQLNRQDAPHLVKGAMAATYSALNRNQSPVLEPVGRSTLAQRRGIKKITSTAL

Structure (SMILES): C[C@@H]1CNC(=O)c2cc3ccc(C(=O)Nc4cnn(Cc5ccccc5)c4)nc3n21 [Compound 0, (R)—N-(1-benzyl-1H-pyrazol-4-yl)-9-methyl-6-oxo-6,7,8,9-tetrahydropyrido[3′,2′:4,5]pyrrolo[1,2-a]pyrazine-2-carboxamide, reference compound]
- Solubility, 20 mg/ml Solution [1]: not soluble; also recorded: poor or nonexistent solubility; also recorded: Precipitate
- IC50 (MDA-MB-231 cells [2]): 0.2 µM
- IC50 (CD34+ cells; Homo sapiens, Hematopoietic stem cell, CD34+ cells from peripheral blood, read-out: CD34+ (PB) IC50): 10 µM
- Therapeutic Window (CD34+ cells; ratio IC50 against CD34+ cells and MDA-MB-231 cells (SA)): 50X

Structure (SMILES): CN1CCN(Cc2c[nH]c3cc(NC(=O)c4cnn(Cc5ccccc5)c4)ccc23)CC1 [Compound 4, 1-Benzyl-N-(3-((4-methylpiperazin-1-yl)methyl)-1H-indol-6-yl)-1H-pyrazole-4-carboxamide]
- IC50 (RSK2): > 10 µM

Structure (SMILES): O=C(Nc1ccc2occ(CN3CCNCC3)c2c1)c1cnn(Cc2ccccc2)c1 [Compound 9, 1-benzyl-N-(3-(piperazin-1-ylmethyl)benzofuran-5-yl)-1H-pyrazole-4-carboxamide]
- IC50 (RSK2): > 10 µM

Structure (SMILES): O=C(Nc1ccc2[nH]cc(CN3CCOCC3)c2c1)c1cnn(Cc2ccccc2)c1 [Compound 1, 1-Benzyl-N-(3-(morpholinomethyl)-1H-indol-5-yl)-1H-pyrazole-4-carboxamide]
- IC50 (RSK2): > 10 µM

Structure (SMILES): C[C@@H]1CNC(=O)c2cc3ccc(NC(=O)c4cnn(Cc5ccccc5)c4)cc3n21 [Compound 11, (R)-1-benzyl-N-(4-methyl-1-oxo-1,2,3,4-tetrahydropyrazino[1,2-a]indol-7-yl)-1H-pyrazole-4-carboxamide]
- IC50 (SUM149-PTXR cells [3]): 36.4 ± 11.9 µM
- IC50 (T47D cells [4]): 48.1 ± 3.3 µM
- IC50 (PC3 cells [5]): 44.9 ± 8.8 µM
- IC50 (4T1 cells [6]): 48.5 ± 2.6 µM
- IC50 (MDA-MB-468 cells [7]): > 50 µM
- IC50 (SUM149 cells [8]): 36 ± 12.8 µM
- IC50 (HCC1937 cells [9]): > 50 µM
- IC50 (JIMT-1 cells [10]): > 50 µM
- IC50 (MDA-MB-435 cells [11]): 24.6 ± 10.3 µM
- IC50 (MDA-MB-231 cells [12]): > 50 µM
- IC50 (HCC1143 cells [13]): > 50 µM
- IC50 (PC3 cells [14]): 45.6 ± 4.8 µM
- IC50 (4T1 cells [15]): 39.5 ± 9.4 µM
- IC50 (SUM149 cells [16]): 33.6 ± 14.5 µM
- IC50 (MDA-MB-435 cells [17]): 17.9 ± 7.3 µM
- IC50 (MDA-MB-231 cells [18]): 45 ± 8.7 µM
- IC50 (SUM149-PTXR cells [19]): 44.6 ± 3.9 µM
- IC50 (HCC1143 cells [20]): > 50 µM
- IC50 (MDA-MB-468 cells [21]): 37.3 ± 2.3 µM
- IC50 (HCC1937 cells [22]): > 50 µM
- IC50 (JIMT-1 cells [23]): > 50 µM
- IC50 (T47D cells [24]): 30.1 ± 3.3 µM

Structure (SMILES): O=C(Nc1ccc2scc(CN3CCOCC3)c2c1)c1cnn(Cc2ccccc2)c1 [Compound 5, 1-Benzyl-N-(3-(morpholinomethyl)benzo[b]thiophen-5-yl)-1H-pyrazole-4-carboxamide]
- IC50 (RSK2): > 10 µM

Structure (SMILES): O=C(Nc1ccc2occ(CN3CCOCC3)c2c1)c1cnn(Cc2ccccc2)c1 [Compound 8, 1-benzyl-N-(3-(morpholinomethyl)benzofuran-5-yl)-1H-pyrazole-4-carboxamide]
- IC50 (RSK2): > 10 µM

Structure (SMILES): CN1CCc2[nH]c3ccc(NC(=O)c4cnn(Cc5ccccc5)c4)cc3c2C1 [Compound 14, 1-benzyl-N-(2-methyl-2,3,4,5-tetrahydro-1H-pyrido[4,3-b]indol-8-yl)-1H-pyrazole-4-carboxamide]
- IC50 (RSK2): > 1 µM

Structure (SMILES): O=C(Nc1ccc2scc(CN3CCNCC3)c2c1)c1cnn(Cc2ccccc2)c1 [Compound 6, 1-Benzyl-N-(3-(piperazin-1-ylmethyl)benzo[b]thiophen-5-yl)-1H-pyrazole-4-carboxamide]
- IC50 (RSK2): > 10 µM

Structure (SMILES): CN1CCc2oc3ccc(NC(=O)c4cnn(Cc5ccccc5)c4)cc3c2C1 [Compound 13, 1-benzyl-N-(2-methyl-1,2,3,4-tetrahydrobenzofuro[3,2-c]pyridin-8-yl)-1H-pyrazole-4-carboxamide]
- IC50 (RSK2): > 1 µM

Structure (SMILES): CN1CCN(Cc2c[nH]c3ccc(NC(=O)c4cnn(Cc5ccccc5)c4)cc23)CC1 [Compound 3, 1-Benzyl-N-(3-((4-methylpiperazin-1-yl)methyl)-1H-indol-5-yl)-1H-pyrazole-4-carboxamide]
- IC50 (RSK2): > 10 µM

Structure (SMILES): O=C(Nc1ccc2cc3n(c2c1)CCNC3=O)c1cnn(Cc2ccccc2)c1 [Compound 12, 1-benzyl-N-(1-oxo-1,2,3,4-tetrahydropyrazino[1,2-a]indol-7-yl)-1H-pyrazole-4-carboxamide]
- IC50 (RSK2): > 1 µM

Structure (SMILES): C[C@@H]1CNC(=O)c2cc3ccc(C(=O)Nc4cnn(CC5CCN(C)CC5)c4)nc3n21 [Compound 20, (R)-9-methyl-N-(1-((1-methylpiperidin-4-yl)methyl)-1H-pyrazol-4-yl)-6-oxo-6,7,8,9-tetrahydropyrido[3′,2′:4,5]pyrrolo[1,2-a]pyrazine-2-carboxamide]
- Solubility, 20 mg/ml Solution [1]: Soluble
- pH of 20 mg/ml solution ([1]; DMSO stock diluted in DMEM, pH test strips): 8

Structure (SMILES): O=C(Nc1ccc2c(CN3CCOCC3)c[nH]c2c1)c1cnn(Cc2ccccc2)c1 [Compound 2, 1-Benzyl-N-(3-(morpholinomethyl)-1H-indol-6-yl)-1H-pyrazole-4-carboxamide]
- IC50 (RSK2): > 10 µM

Structure (SMILES): O=C(Nc1ccc2c(CN3CCOCC3)coc2c1)c1cnn(Cc2ccccc2)c1 [Compound 7, 1-benzyl-N-(3-(morpholinomethyl)benzofuran-6-yl)-1H-pyrazole-4-carboxamide]
- IC50 (RSK2): > 10 µM

Structure (SMILES): O=C(Nc1ccc2c(CN3CCNCC3)coc2c1)c1cnn(Cc2ccccc2)c1 [Compound 10, 1-benzyl-N-(3-(piperazin-1-ylmethyl)benzofuran-6-yl)-1H-pyrazole-4-carboxamide]
- IC50 (RSK2): > 1 µM
